From patent publication EP0973746B1, “SUBSTITUTED 3-CYANO QUINOLINES” (Wyeth Holdings Corporation, priority 1997, dated 1998)
≈ marks a conversion by molar mass, not a printed value. Where two headings read alike, the source gives them in different places.

How the values were obtained:
[1] = molecular target: Epithelial Cell Kinase (ECK) (Homo sapiens, UniProt P29317); assay: biochemical
Method: In this standard pharmacological test procedure, a biotinylated peptide substrate is first immobilized on neutravidin-coated microtiter plates. The test drug, the Epithelial Cell Kinase (ECK), Mg^++, sodium vanadate (a protein tyrosine phosphatase inhibitor), and an appropriate buffer to maintain pH (7.2) are then added to the immobilized substrate-containing microtiter wells. ATP is then added to initiate phosphorylation. After incubation, the assay plates are washed with a suitable buffer leaving behind phosphorylated peptide which is exposed to horse radish peroxidase (HRP)-conjugated anti-phosphotyrosine monoclonal antibody. The antibody-treated plates are washed again and the HRP activity in individual wells is quantified as a reflection of degree of substrate phosphorylation.

[2] = molecular target: recombinant human MEK 1 (MAPKK) and recombinant human ERK2 (MAPK); assay: Mitogen Activated Protein Kinase (MAPK) assay, two component coupled MEK 1 / ERK2; type: biochemical; conditions: separate entries for the same compound = evaluated more than one time;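 also: MEK 1-activated ERK2 phosphorylates MBP or Myc peptide with 33P-ATP, filter capture and scintillation counting, inhibitor preincubated with ERK2 30 min at 0 °C, inhibition relative to uninhibited control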
SW620 = assay: Inhibition of cancer cell growth as measured by cell number, SW620; type: cell-based, human; conditions: for IC50: Homo sapiens, SW-620, 48 h;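 as to all read-outs here: SW620 was included as a cell line with little or no EGFR or HER2/neu expression, in contrast to receptor-overexpressing lines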
From the text: (§1) The cell lines were chosen since they overexpressed epidermal growth factor receptor (EGFR) (i.e. A431) or HER2/neu (SKBR3), or had little to no expression of the these receptors (SW620, LOX, MCF7).

A431 = assay: Inhibition of cancer cell growth as measured by cell number, A431; type: cell-based, human; conditions: Homo sapiens, A-431, 48 h;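 also: human A431 line, picked because it overexpresses epidermal growth factor receptor (EGFR)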
From the text: as §1

SKBR3 = assay: Inhibition of cancer cell growth as measured by cell number, SKBR3; type: cell-based, human; conditions: for IC50: Homo sapiens;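 as to all read-outs here: SK-BR-3 cells were selected as a line overexpressing HER2/neu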
From the text: as §1

[3] = molecular target: T1, His-tagged cytoplasmic domain of EGFR (Homo sapiens, UniProt P00533); assay: Inhibition of Epidermal Growth Factor Receptor Kinase (EGF-R) using recombinant enzyme; type: biochemical; conditions: recombinant enzyme; RR-SRC peptide; average of the number of tests; read-out: IC50;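 also: radiometric kinase assay measuring radiolabeled phosphate transfer from ATP onto the peptide tyrosine by scintillation counting, control is reaction without compound, background subtracted, IC50 from dose-response curve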
T1 construct: containing the EGFR cDNA encoding amino acids 645 - 1186 preceded by Met-Ala-(His)6; made in house; host or cells: Sf9 cells, recombinant baculovirus vHcEGFR52
T1 sequence (P00533 669-1210): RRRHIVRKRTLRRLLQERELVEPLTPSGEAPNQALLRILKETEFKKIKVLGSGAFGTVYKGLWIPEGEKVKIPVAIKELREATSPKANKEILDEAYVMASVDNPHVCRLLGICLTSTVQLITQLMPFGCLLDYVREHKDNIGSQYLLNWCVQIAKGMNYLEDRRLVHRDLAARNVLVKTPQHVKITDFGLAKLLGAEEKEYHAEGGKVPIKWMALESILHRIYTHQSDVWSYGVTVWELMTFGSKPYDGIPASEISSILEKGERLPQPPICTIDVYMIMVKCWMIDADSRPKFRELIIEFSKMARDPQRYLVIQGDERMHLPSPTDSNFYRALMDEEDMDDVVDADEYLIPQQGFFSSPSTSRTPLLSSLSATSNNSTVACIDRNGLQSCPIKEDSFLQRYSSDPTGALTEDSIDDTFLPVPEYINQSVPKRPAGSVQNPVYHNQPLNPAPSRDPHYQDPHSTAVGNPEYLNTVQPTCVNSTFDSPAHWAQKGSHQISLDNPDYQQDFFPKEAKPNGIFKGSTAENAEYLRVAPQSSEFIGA

[4] = molecular target: T2, Kinase insert Domain containing Receptor (KDR: the catalytic domain of the VEGF receptor) (Homo sapiens, UniProt P35968); assay: Inhibition of Kinase insert Domain containing Receptor (KDR); type: biochemical; conditions: pH 7.2; radioactive format; read-out: KDR IC50 (converted);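 also: KDR phosphorylating a Glu:Tyr 4:1 copolymer with P32- or P33-labelled ATP, Mg++ and vanadate, read as acid-insoluble radiolabel, compared with compound-free reaction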
T2 construct: KDR: the catalytic domain of the VEGF receptor
T2 sequence (P35968 834-1162 limits assumed): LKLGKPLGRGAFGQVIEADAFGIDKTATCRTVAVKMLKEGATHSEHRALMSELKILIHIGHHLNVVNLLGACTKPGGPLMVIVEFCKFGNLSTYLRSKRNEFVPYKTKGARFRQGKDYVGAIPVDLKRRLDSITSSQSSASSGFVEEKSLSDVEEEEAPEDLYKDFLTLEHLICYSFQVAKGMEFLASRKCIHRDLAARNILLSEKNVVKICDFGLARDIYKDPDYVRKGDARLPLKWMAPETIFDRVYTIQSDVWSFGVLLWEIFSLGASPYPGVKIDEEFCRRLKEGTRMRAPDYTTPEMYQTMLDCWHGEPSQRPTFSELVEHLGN
Method: In this standard pharmacological test procedure, KDR protein is mixed, in the presence or absence of a inhibitor compound, with a substrate peptide to be phosphorylated (a copolymer of glutamic acid and tyrosine, E:Y :: 4:1) and other cofactors such as Mg^++ and sodium vanadate (a protein tyrosine phosphatase inhibitor) in an appropriate buffer to maintain pH (7.2). ATP and a radioactive tracer (either P^32-or P^33- labeled ATP) is then add to initiate phosphorylation. After incubation, the radioactive phosphate associated with the acid-insoluble fraction of the assay mixture is then quantified as reflection of substrate phosphorylation.

MCF7 = assay: Inhibition of cancer cell growth as measured by cell number, MCF7; type: cell-based, human; conditions: Homo sapiens, MCF7, 48 h, read-out: IC50 MCF7, cell number, Sulforhodamine B, 48 hours exposure; Table 8;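 also: MCF7 was included as a line with little or no EGFR or HER2/neu expression, in contrast to the receptor-overexpressing lines of the panel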
From the text: as §1

LOX = assay: Inhibition of cancer cell growth as measured by cell number, LOX; type: cell-based, human; conditions: Homo sapiens, LOX, 48 h, read-out: IC50 LOX, cell number, Sulforhodamine B, 48 hours exposure; Table 8;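 also: LOX cells served as a line with low or absent EGFR and HER2/neu expression, in contrast to receptor-overexpressing lines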
From the text: as §1

[5] = system: human epidermoid tumors (A431); assay: In vivo inhibition of the growth of human epidermoid tumors (A431); conditions: Table 11; for S/T = No. Survivors/No. Treated: Day +28 post tumor staging
Method: Representative compounds of this invention (listed below) were evaluated in an in vivo standard pharmacological test procedure which measured its ability to inhibit the growth of human epidermoid tumors. […] BALB/c nu/nu female mice (Charles River, Wilmington, MA) were used in this in vivo standard pharmacological test procedure. A unit of 5 X 10^6 cells were injected SC into mice. When tumors attained a mass of between 100 and 150 mg, the mice were randomized into treatment groups (day zero). […] Control animals received no drug. Tumor mass was determined every 7 days [(length X width^2)/2] for 28 days post staging. Relative tumor growth (Mean tumor mass on days 7, 14, 21, and 28 divided by the mean tumor mass on day zero) is determined for each treatment group.

[6] = SK-BR-3, 48 h, read-out: IC50 SKBR3
[7] = read-out: IC50 SW620, cell number, Sulforhodamine B, 48 hours exposure, Table 8
[8] = read-out: IC50 A431, cell number, Sulforhodamine B, 48 hours exposure, Table 8
[9] = SK-BR-3, 48 h, read-out: IC50 SKBR3, cell number, Sulforhodamine B, 48 hours exposure, Table 8
[10] = 80 mg/kg/dose IP on days 1,5 and 9
[11] = 80 mg/kg/dose PO on days 1 through 10
[12] = cell number, Sulforhodamine B, 48 hours exposure, Table 8

Epithelial Cell Kinase (ECK), sequence (P29317 24-976, species assumed): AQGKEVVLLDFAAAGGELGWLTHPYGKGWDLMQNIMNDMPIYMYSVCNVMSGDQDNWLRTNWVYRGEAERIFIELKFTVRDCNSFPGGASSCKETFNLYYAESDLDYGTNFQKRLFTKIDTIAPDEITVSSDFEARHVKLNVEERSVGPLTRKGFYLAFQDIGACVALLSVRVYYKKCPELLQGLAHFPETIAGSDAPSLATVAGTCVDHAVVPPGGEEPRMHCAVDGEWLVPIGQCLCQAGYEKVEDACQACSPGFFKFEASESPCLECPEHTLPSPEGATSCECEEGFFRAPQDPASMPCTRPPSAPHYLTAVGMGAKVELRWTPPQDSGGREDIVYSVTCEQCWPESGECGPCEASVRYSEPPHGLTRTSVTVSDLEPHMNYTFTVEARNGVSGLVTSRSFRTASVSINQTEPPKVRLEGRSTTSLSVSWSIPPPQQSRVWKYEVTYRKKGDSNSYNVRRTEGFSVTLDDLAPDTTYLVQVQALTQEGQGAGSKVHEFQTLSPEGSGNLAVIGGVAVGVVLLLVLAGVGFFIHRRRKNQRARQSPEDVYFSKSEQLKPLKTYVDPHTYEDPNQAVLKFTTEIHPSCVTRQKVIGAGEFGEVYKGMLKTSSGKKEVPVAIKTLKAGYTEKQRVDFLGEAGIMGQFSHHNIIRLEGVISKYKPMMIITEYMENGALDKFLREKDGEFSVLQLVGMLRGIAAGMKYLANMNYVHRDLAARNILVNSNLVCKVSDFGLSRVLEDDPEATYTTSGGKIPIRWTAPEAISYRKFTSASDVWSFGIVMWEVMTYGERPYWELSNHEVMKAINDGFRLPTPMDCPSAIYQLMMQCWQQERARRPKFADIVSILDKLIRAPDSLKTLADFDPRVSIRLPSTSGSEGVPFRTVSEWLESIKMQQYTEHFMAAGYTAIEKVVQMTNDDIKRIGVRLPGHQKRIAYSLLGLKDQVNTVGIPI

Structure (SMILES)	IC50 [1] [µM]	IC50 [2] [µM]	IC50 [4] [µM]	further results
COc1ccc2c(Nc3cccc(Br)c3)c(C#N)cnc2c1 [Example 3, 4-[(3-Bromophenyl)amino]-7-methoxy-3-guinolinecarbonitrile]	28.2	> 100	–	–
N#Cc1cnc2ccc(NC(=O)CCl)cc2c1Nc1cccc(Br)c1 [Example 19, N-[4-[(3-Bromophenyl)amino]-3-cyano-6-quinolinyl]-2-chloroacetamide]	24.1	29	–	–
N#Cc1cnc2cc(O)c(O)cc2c1Nc1cccc(Br)c1 [Example 39, 4-[(3-Bromophenyl)amino]-6,7-dihydroxy-3-quinolinecarbonitrile]	28.1	40	–	–
N#Cc1cnc2cc3c(cc2c1Nc1cccc(Br)c1)OCO3 [Example 40, 8-[(3-Bromophenyl)amino]-[1,3]-dioxolo[4,5-g]quinoline-7-carbonitrile]	27.2	> 100	–	–
COc1cc2c(Nc3ccc(Cl)cc3F)c(C#N)cnc2cc1OCCCN1CCOCC1 [Example 81, 4-(4-Chloro-2-fluoro-phenylamino)-6-methoxy-7-(3-morpholin-4-yl-propoxy)-quinoline-3-carbonitrile]	0.425	0.1	–	–
CCN(CC)CC=CC(=O)Nc1ccc2ncc(C#N)c(Nc3cccc(Br)c3)c2c1 [Example 100, 4-Diethylamino-but-2-enoic acid [4-(3-bromophenylamino)-3-cyano-quinolin-6-yl]-amide]	41.8	20	–	IC50 (SW620; read-out: IC50 SW620): 0.8 µg/mL (≈ 1.67 µM); IC50 (A431; read-out: IC50 A431): 0.1 µg/mL (≈ 0.209 µM); IC50 (SKBR3; [6]): 0.1 µg/mL (≈ 0.209 µM)
N#Cc1cnc2ccc(NC(=O)C=CCN3CCOCC3)cc2c1Nc1ccc(F)c(Cl)c1 [Example 147, N-{4-[(3-Chloro-4-fluorophenyl)amino]-3-cyano-6-quinolinyl} -4-morpholino-2-butenamide]	43.1	80	–	–
C=CC(=O)Nc1ccc2ncc(C#N)c(Nc3ccc(F)c(F)c3)c2c1 [Example 154, N-{3-Cyano-4-[(3,4-difluorophenyl)amino]-6-quinolinyl]-2-propenamide]	–	20	> 85.6	IC50 (SW620; [7]): 0.55 µg/mL (≈ 1.57 µM); IC50 (A431; [8]): 0.07 µg/mL (≈ 0.2 µM); IC50 [3]: 0.15 µM; IC50 (MCF7): 2.57 µg/mL (≈ 7.34 µM); IC50 (LOX): 0.44 µg/mL (≈ 1.26 µM); IC50 (SKBR3; [9]): 0.05 µg/mL (≈ 0.143 µM)
N#Cc1cnc2ccc(NC(=O)C=CCN3CCOCC3)cc2c1Nc1ccc(F)c(Br)c1 [Example 174, N-{4-[(3-Bromo-4-fluorophenyl)amino]-3-cyano-6-quinolinyl] -4-morpholino-2-butenamide]	39.2	2.5	–	IC50 (SW620; read-out: IC50 SW620): > 5 µg/mL
CN1CCN(CC#CC(=O)Nc2ccc3ncc(C#N)c(Nc4cccc(Br)c4)c3c2)CC1 [Example 190, N-[4-[(3-Bromophenyl)amino]-3-cyano-6-quinolinyl]-4-(N-methylpiperazino)-2-butynamide]	39.7	–	–	–
CC(C)N(C)CC#CC(=O)Nc1ccc2ncc(C#N)c(Nc3cccc(Br)c3)c2c1 [Example 191, N-[4-[(3-Bromophenyl)amino]-3-cyano-6-quinolinyl]-4-(N-isopropyl-N-methylamino)-2-butynamide]	42	–	–	IC50 (SKBR3; [6]): 0.06 µg/mL (≈ 0.126 µM)
COc1cc2ncc(C#N)c(Nc3cccc(Br)c3)c2cc1NC(=O)C=CCN1CCOCC1 [Example 200, 4-Morpholin-4-yl-but-2-enoic acid [4-(3-bromo-phenylamino)-3-cyano-7-methoxy-quinolin-6-yl]-amide]	38.3	> 100	–	IC50 (SW620; read-out: IC50 SW620): > 5 µg/mL
COc1cc2ncc(C#N)c(Nc3ccc(F)c(Br)c3)c2cc1NC(=O)C=CCN(C)C [Example 208, 4-Dimethylamino-but-2-enoic acid [4-(3-bromo-4-fluorophenylamino)-3-cyano-7-methoxy-quinolin-6-yl]-amide]	–	13	20.1	%T/C Day 7 [5, 10]: 14%; %T/C Day 14 [5, 10]: 15%; %T/C Day 21 [5, 10]: 26%; %T/C Day 28 [5, 10]: 32%; S/T = No. Survivors/No. Treated [5, 10]: 5/5; %T/C Day 7 [5, 11]: 6%; %T/C Day 14 [5, 11]: 6%; %T/C Day 21 [5, 11]: 8%; %T/C Day 28 [5, 11]: 10%; S/T = No. Survivors/No. Treated [5, 11]: 5/5; IC50 (SW620; [7]): 0.453 µg/mL (≈ 0.909 µM); IC50 (A431; [8]): 0.067 µg/mL (≈ 0.134 µM); IC50 [3]: 0.0015 µM; IC50 (SKBR3; [9]): 0.038 µg/mL (≈ 0.0763 µM)
CCOc1cc2ncc(C#N)c(Nc3cccc(Br)c3)c2cc1NC(=O)C=CCN1CCOCC1 [Example 218, 4-Morpholin-4-yl-but-2-enoic acid [4-(3-bromo-phenylamino)-3-cyano-7-ethoxy-quinolin-6-yl]-amide]	–	–	> 55.9	IC50 (SW620; [7]): 1.85 µg/mL (≈ 3.46 µM); IC50 SW620 (SW620; [12]): 1.235 µg/mL (≈ 2.3 µM); IC50 (SKBR3; [9]): 0.029 µg/mL (≈ 0.0541 µM); IC50 SKBR3 (SKBR3; [12]): 0.047 µg/mL (≈ 0.0876 µM)
COc1cc2ncc(C#N)c(Nc3ccc(C)c(O)c3)c2cc1OC [Example 229, 4-(3-Hydroxy-4-methyl-phenylamino)-6,7-dimethoxy-quinoline-3-carbonitrile]	–	< 1	0.596	IC50 (SW620; cell number, Sulforhodamine B, 48 hours exposure, Table 8, read-out: IC50 SW620): > 5 µg/mL; IC50 (A431; cell number, Sulforhodamine B, 48 hours exposure, Table 8, read-out: IC50 A431): 0.469 µg/mL (≈ 1.4 µM); IC50 (SKBR3; SK-BR-3, cell number, Sulforhodamine B, 48 hours exposure, Table 8, read-out: IC50 SKBR3): > 5 µg/mL
COc1cccc2c(Nc3ccc(Cl)cc3F)c(C#N)cnc12 [Example 275, 4-(4-Chloro-2-fluoro-phenylamino)-8-methoxy-quinoline-3-carbonitrile]	–	> 100	> 91.5	–
COc1cccc2c(Nc3cccc(N(C)C)c3)c(C#N)cnc12 [Example 277, 4-(3-Dimethylamino-phenylamino)-8-methoxy-quinoline-3-carbonitrile]	–	> 100	> 94.2	–
COc1cccc2c(Nc3ccc(Br)c(O)c3)c(C#N)cnc12 [Example 278, 4-(4-Bromo-3-hydroxy-phenylamino)-8-methoxy-quinoline-3-carbonitrile]	–	> 100	> 81	–
COc1ccc(Nc2c(C#N)cnc3c(OC)cccc23)cc1O [Example 279, 4-(3-Hydroxy-4-methoxy-phenylamino)-8-methoxy-quinoline-3-carbonitrile]	–	> 100	> 93.4	–
COc1cccc2c(Nc3c(F)cc(F)cc3F)c(C#N)cnc12 [Example 280, 8-Methoxy-4-(2,4,6-trifluoro-phenylamino)-quinoline-3-carbonitrile]	–	> 100	> 91.1	–
COc1ccc2ncc(C#N)c(Nc3ccc(Cl)cc3F)c2c1 [Example 283, 4-(4-Chloro-2-fluoro-phenylamino)-6-methoxy-quinoline-3-carbonitrile]	9.15	> 100	–	–
COc1ccc2ncc(C#N)c(Nc3ccc(C)c(O)c3)c2c1 [Example 284, 4-(3-Hydroxy-4-methyl-phenylamino)-6-methoxy-quinoline-3-carbonitrile]	32.8	4	–	–
COc1cc2ncc(C#N)c(Nc3cc(Cl)ccc3O)c2cc1OC [Example 290, 4-(5-Chloro-2-hydroxy-phenylamino)-6,7-dimethoxy-quinoline-3-carbonitrile]	–	3	28.1	–
COc1cc2ncc(C#N)c(Nc3cc(Br)c(O)c(Br)c3)c2cc1OC [Example 291, 4-(3,5-Dibromo-4-hydroxy-phenylamino)-6,7-dimethoxy-quinoline-3-carbonitrile]	–	> 100	20.9	–
COc1cc2ncc(C#N)c(Nc3cc(C)ccc3O)c2cc1OC [Example 295, 4-(2-Hydroxy-5-methyl-phenylamino)-6,7-dimethoxy-quinoline-3-carbonitrile]	–	50	29.8	–
